Measured values from patent US11286247B2, “Acryloyl-containing nuclear transport regulators and uses thereof” (WIGEN BIOMEDICINE TECHNOLOGY (SHANGHAI) CO., LTD., priority 2019, dated 2022).

Columns and labels:
[1] = In vivo pharmacokinetic analysis; details: ICR, mouse; mice, 5 mg/kg, oral gavage in 0.5% CMC, plasma
Protocol: A group of 9 ICR mice received 5 mg/kg of compound in 0.5% CMC by oral gavage. Blood was taken before treatment and at 5 min, 30 min, 1, 2, 4, 8, 12 and 24 h after treatment. 80 μL of whole blood was sampled (n=3 at each time point) via retro-orbital bleeds or cardiac puncture. The blood sample was collected into EDTA tubes and plasma were obtained by centrifugation at 1500-1600 rpm for 10 min at 4° C. After centrifugation, plasma sample was transferred to a new tube and stored at −60 to −90° C. for future analysis. Plasma concentration of (compounds was quantified by a method based on liquid chromatography coupled to tandem mass-spectrometric detections (LC/MS/MS). Noncompartmental pharmacokinetics parameters were calculated.

[2] = test system: MDA-MB-231 cells (breast cancer cells); experiment: Cancer cell proliferation assay, MDA-MB-231; assay type: cell-based; details: Homo sapiens, MDA-MB-231, 72 h; three days incubation, absorbance 570 nm; read-out: IC50 (μM) MDA-MB-231
Protocol: (§1) BxPC-3 cells (pancreatic cancer) and MDA-MB-231 cells (breast cancer cells) were harvested from exponential phase cultures and seeded in 96-well plates at a cell density of 2×10^4 per well. After overnight attachment, compounds including positive controls were applied to cells at five concentrations and incubated for three days. During the last four hours of incubation, 20 μL of 5 mg/mL […] was added followed by the further addition of 100 μL DMSO. The plates were subsequently shook for 10 minutes to dissolve insoluble purple formazan. Absorbance (A) at a wavelength of 570 nm was quantified. Percentage of inhibition was used for the calculation of IC50 based on the bliss method.

[3] = test system: BxPC-3 cells (pancreatic cancer); experiment: Cancer cell proliferation assay, BxPC-3; assay type: cell-based; details: Homo sapiens, BXPC-3, 72 h; three days incubation, absorbance 570 nm; read-out: IC50 (μM) BxPC-3
Protocol: as §1

CRM1 = target: T1, CRM1 (Homo sapiens, UniProt O14980); experiment: Rev-GFP nuclear export assay; assay type: cell-based; details: U2OS cells expressing Rev-GFP, 1 hour incubation, nuclear retention of Rev-GFP
T1 construct: The nuclear localization of Rev protein depends on CRM1; endogenous in cells; host or cells: U2OS cells stably or transiently expressing Rev-GFP (reporter cargo)
T1 sequence (O14980 whole entry): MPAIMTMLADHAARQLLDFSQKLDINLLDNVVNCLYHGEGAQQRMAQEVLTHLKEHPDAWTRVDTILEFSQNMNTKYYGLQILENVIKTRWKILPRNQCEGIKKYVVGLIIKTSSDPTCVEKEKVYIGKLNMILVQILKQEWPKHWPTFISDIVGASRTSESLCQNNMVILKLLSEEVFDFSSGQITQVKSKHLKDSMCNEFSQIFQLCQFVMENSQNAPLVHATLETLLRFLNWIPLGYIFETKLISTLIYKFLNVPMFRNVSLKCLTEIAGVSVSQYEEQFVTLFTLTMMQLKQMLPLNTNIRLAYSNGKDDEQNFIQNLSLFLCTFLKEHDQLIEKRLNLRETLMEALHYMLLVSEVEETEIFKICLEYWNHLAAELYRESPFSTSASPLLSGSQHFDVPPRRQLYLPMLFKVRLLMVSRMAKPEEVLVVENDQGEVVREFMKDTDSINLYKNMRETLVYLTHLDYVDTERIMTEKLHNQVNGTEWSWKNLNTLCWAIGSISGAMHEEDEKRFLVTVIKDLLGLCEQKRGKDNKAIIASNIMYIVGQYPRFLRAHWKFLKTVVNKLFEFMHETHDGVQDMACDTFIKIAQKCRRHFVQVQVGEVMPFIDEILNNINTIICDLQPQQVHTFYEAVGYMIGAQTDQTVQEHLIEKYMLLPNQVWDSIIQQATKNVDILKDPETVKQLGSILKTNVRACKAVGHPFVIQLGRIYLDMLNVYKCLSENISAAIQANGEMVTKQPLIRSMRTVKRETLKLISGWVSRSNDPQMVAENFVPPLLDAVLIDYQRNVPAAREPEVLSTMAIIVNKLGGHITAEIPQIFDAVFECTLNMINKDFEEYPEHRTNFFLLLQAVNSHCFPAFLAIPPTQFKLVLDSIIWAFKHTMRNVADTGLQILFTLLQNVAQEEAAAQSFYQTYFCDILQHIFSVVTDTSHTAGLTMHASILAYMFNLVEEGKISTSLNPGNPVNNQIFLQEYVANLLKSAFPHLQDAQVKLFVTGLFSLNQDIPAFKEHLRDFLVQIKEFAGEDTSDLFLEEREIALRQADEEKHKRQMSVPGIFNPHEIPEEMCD
Protocol: The Rev protein from HIV contains nuclear export sequence (NES) at its C terminus and nuclear localization sequence (NLS) at its N-terminus. The nuclear localization of Rev protein depends on CRM1. U2OS cells expressing Rev protein fused with GFP (Rev-GFP) were plated in black 384 plates with clear bottom one day prior to treatment. Compounds were serially diluted 2-fold from 40 μM with DMEM in 384 plates, and then incubated with U2OS cells for an hour. Cells were fixed with 3.7% formaldehyde afterwards and nuclei were stained with Hoechst33258. The nuclear retention of Rev-GFP was examined, and IC50 was calculated.

AUC(0-t) [1] [ng·h/mL]	Cmax [1] [ng/mL]	MRT [1] [h]	Tmax [1] [h]	half-life [1] [h]	IC50 [2] [µM]	IC50 [3] [µM]	IC50 (CRM1) [nM]	Compound
5810	499	7.86	1	3.31	–	–	–	O=C(/C=C\n1cnc(-c2cc(C(F)(F)F)cc(C(F)(F)F)c2)n1)NN1CCCCC1=O [Compound 3, (Z)-3-(3-(3,5-bis(trifluoromethyl)phenyl)-1H-1,2,4-triazol-1-yl)-N-(2-oxopiperidin-1-yl)acrylamide]
–	–	–	–	–	0.034	0.238	< 1000	O=C(/C=C\n1cnc(-c2cc(C(F)(F)F)cc(C(F)(F)F)c2)n1)NN1CCCCCC1=O [Compound 4, (Z)-3-(3-(3,5-bis(trifluoromethyl)phenyl)-1H-1,2,4-triazol-1-yl)-N-(2-oxoazepan-1-yl)acrylamide]
3690	674	4.34	1	4.53	0.955	0.202	< 1000	CC1=C(C)C(=O)N(NC(=O)/C=C\n2cnc(-c3cc(C(F)(F)F)cc(C(F)(F)F)c3)n2)C1 [Compound 5, (Z)-3-(3-(3,5-bis(trifluoromethyl)phenyl)-1H-1,2,4-triazol-1-yl)-N-(3,4-dimethyl-2-oxo-2,5-dihydro-1H-pyrrol-1-yl)acrylamide]
–	–	–	–	–	0.487	0.471	< 1000	CCC1=C(C)CN(NC(=O)/C=C\n2cnc(-c3cc(C(F)(F)F)cc(C(F)(F)F)c3)n2)C1=O [Compound 6, (Z)-3-(3-(3,5-bis(trifluoromethyl)phenyl)-1H-1,2,4-triazol-1-yl)-N-(3-ethyl-4-methyl-2-oxo-2,5-dihydro-1H-pyrrol-1-yl)acrylamide]
–	–	–	–	–	0.504	0.334	< 1000	CC1CCN(NC(=O)/C=C\n2cnc(-c3cc(C(F)(F)F)cc(C(F)(F)F)c3)n2)C1=O (centres unmarked) [Compound 9, (Z)-3-(3-(3,5-bis(trifluoromethyl)phenyl)-1H-1,2,4-triazol-1-yl)-N-(3-methyl-2-oxopyrrolidin-1-yl)acrylamide]
–	–	–	–	–	0.519	0.527	1000 to 10000	O=C(/C=C\n1cnc(-c2cc(C(F)(F)F)cc(C(F)(F)F)c2)n1)NN1CC[C@H](O)C1=O [Compound 10, (S,Z)-3-(3-(3,5-bis(trifluoromethyl)phenyl)-1H-1,2,4-triazol-1-yl)-N-(3-hydroxy-2-oxopyrrolidin-1-yl)acrylamide]
–	–	–	–	–	1.23	0.352	–	O=C(/C=C\n1cnc(-c2cc(C(F)(F)F)cc(C(F)(F)F)c2)n1)NN1CC(O)CC1=O (centres unmarked) [Compound 15, (Z)-3-(3-(3,5-bis(trifluoromethyl)phenyl)-1H-1,2,4-triazol-1-yl)-N-(4-hydroxy-2-oxopyrrolidin-1-yl)acrylamide]
–	–	–	–	–	0.24	0.769	1000 to 10000	O=C(/C=C\n1cnc(-c2cc(C(F)(F)F)cc(C(F)(F)F)c2)n1)NN1CC2CCCCC2C1=O (centres unmarked) [Compound 28, (Z)-3-(3-(3,5-bis(trifluoromethyl)phenyl)-1H-1,2,4-triazol-1-yl)-N-(1-oxooctahydro-2H-isoindol-2-yl)acrylamide]
–	–	–	–	–	0.515	0.392	< 1000	O=C(/C=C\n1cnc(-c2cc(C(F)(F)F)cc(C(F)(F)F)c2)n1)NN1C(=O)[C@H]2C=C[C@@H]1C2 [Compound 30, (Z)-3-(3-(3,5-bis(trifluoromethyl)phenyl)-1H-1,2,4-triazol-1-yl)-N-((1S,4R)-3-oxo-2-azabicyclo[2.2.1]hept-5-en-2-yl)acrylamide]
–	–	–	–	–	0.277	0.134	< 1000	O=C(/C=C\n1cnc(-c2cc(C(F)(F)F)cc(C(F)(F)F)c2)n1)NN1C(=O)[C@H]2CC[C@@H]1C2 [Compound 32, (Z)-3-(3-(3,5-bis(trifluoromethyl)phenyl)-1H-1,2,4-triazol-1-yl)-N-((1R,4S)-3-oxo-2-azabicyclo[2.2.1]heptan-2-yl)acrylamide]
–	–	–	–	–	0.382	0.449	< 1000	O=C(/C=C\n1cnc(-c2cc(C(F)(F)F)cc(C(F)(F)F)c2)n1)Nn1ccccc1=O [Compound 56, (Z)-3-(3-(3,5-bis(trifluoromethyl)phenyl)-1H-1,2,4-triazol-1-yl)-N-(2-oxopyridin-1(2H)-yl)acrylamide]
–	–	–	–	–	0.055	0.168	< 1000	CC(C)N1C(=O)CCN1C(=O)/C=C\n1cnc(-c2cc(C(F)(F)F)cc(C(F)(F)F)c2)n1 [Compound 65, (Z)-1-(3-(3-(3,5-bis(trifluoromethyl)phenyl)-1H-1,2,4-triazol-1-yl)acryloyl)-2-isopropylpyrazolidin-3-one]
–	–	–	–	–	0.965	0.483	< 1000	O=C(/C=C\n1cnc(-c2cc(C(F)(F)F)cc(C(F)(F)F)c2)n1)N1CCC(=O)N1Cc1ccccc1 [Compound 67, (Z)-2-benzyl-1-(3-(3-(3,5-bis(trifluoromethyl)phenyl)-1H-1,2,4-triazol-1-yl)acryloyl)pyrazolidin-3-one]
–	–	–	–	–	0.266	0.145	< 1000	CCOC1=CC(=O)N(NC(=O)/C=C\n2cnc(-c3cc(C(F)(F)F)cc(C(F)(F)F)c3)n2)C1 [Compound 80, (Z)-3-(3-(3,5-bis(trifluoromethyl)phenyl)-1H-1,2,4-triazol-1-yl)-N-(4-ethoxy-2-oxo-2,5-dihydro-1H-pyrrol-1-yl)acrylamide]
–	–	–	–	–	0.102	0.016	< 1000	[2H]C([2H])([2H])OC1=CC(=O)N(NC(=O)/C=C\n2cnc(-c3cc(C(F)(F)F)cc(C(F)(F)F)c3)n2)C1 [Compound 82, (Z)-3-(3-(3,5-bis(trifluoromethyl)phenyl)-1H-1,2,4-triazol-1-yl)-N-(4-(methoxy-d3)-2-oxo-2,5-dihydro-1H-pyrrol-1-yl)acrylamide]
–	–	–	–	–	0.214	0.344	< 1000	O=C(/C=C\n1cnc(-c2cc(C(F)(F)F)cc(C(F)(F)F)c2)n1)NN1CC(OCC(F)(F)F)=CC1=O [Compound 83, (Z)-3-(3-(3,5-bis(trifluoromethyl)phenyl)-1H-1,2,4-triazol-1-yl)-N-(2-oxo-4-(2,2,2-trifluoroethoxy)-2,5-dihydro-1H-pyrrol-1-yl)acrylamide]
–	–	–	–	–	0.41	0.259	< 1000	O=C(/C=C\n1cnc(-c2cc(C(F)(F)F)cc(C(F)(F)F)c2)n1)NN1CCC=CC1=O [Compound 88, (Z)-3-(3-(3,5-bis(trifluoromethyl)phenyl)-1H-1,2,4-triazol-1-yl)-N-(6-oxo-3,6-dihydropyridin-1(2H)-yl)acrylamide]
–	–	–	–	–	0.277	0.184	< 1000	CC1=CC(=O)N(NC(=O)/C=C\n2cnc(-c3cc(C(F)(F)F)cc(C(F)(F)F)c3)n2)CC1 [Compound 89, (Z)-3-(3-(3,5-bis(trifluoromethyl)phenyl)-1H-1,2,4-triazol-1-yl)-N-(4-methyl-6-oxo-3,6-dihydropyridin-1(2H)-yl)acrylamide]
–	–	–	–	–	0.675	0.334	< 1000	O=C(/C=C\n1cnc(-c2cc(C(F)(F)F)cc(C(F)(F)F)c2)n1)N1CCCN1c1cnccn1 [Compound 96, (Z)-3-(3-(3,5-bis(trifluoromethyl)phenyl)-1H-1,2,4-triazol-1-yl)-1-(2-(pyrazin-2-yl)pyrazolidin-1-yl)prop-2-en-1-one]
–	–	–	–	–	0.487	0.302	< 1000	O=C(/C=C\n1cnc(-c2cc(C(F)(F)F)cc(C(F)(F)F)c2)n1)N1CCCN1C(=O)C1CC1 [Compound 98, (Z)-3-(3-(3,5-bis(trifluoromethyl)phenyl)-1H-1,2,4-triazol-1-yl)-1-(2-(cyclopropanecarbonyl)pyrazolidin-1-yl)prop-2-en-1-one]

Compound	AUC(0-t) [1] [ng·h/mL]	Cmax [1] [ng/mL]	MRT [1] [h]	Tmax [1] [h]	half-life [1] [h]	IC50 [2] [µM]	IC50 [3] [µM]	IC50 (CRM1) [nM]
O=C(/C=C\n1cnc(-c2cc(C(F)(F)F)cc(C(F)(F)F)c2)n1)NN1CCC2(CC2)C1=O [Compound 18, (Z)-3-(3-(3,5-bis(trifluoromethyl)phenyl)-1H-1,2,4-triazol-1-yl)-N-(4-oxo-5-azaspiro[2.4]heptan-5-yl)acrylamide]	3100	320	6.17	0.5	3.12	–	–	–
